Here are results for 13 compounds from PubChem BioAssay AID270 (DTP/NCI, 2004).

Molecules are shown by their SMILES. “And” between values parts separate entries of the source, which are not always exact repeats. Equal entries are not always repeated. Records with an inconclusive call do not appear.

This assay concerns BDF1 mice, s.c. Lewis lung carcinoma, T/C %. The experiment in a line: NCI In Vivo Anticancer Drug Screen. Data for tumor model Lewis Lung Carcinoma (subcutaneous) in B6D2F1 (BDF1) mice. Summed up:
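Tumor-bearing mice were treated with test compound, and either survival or tumor size was recorded. Values are the treated-group measurement divided by that of the vehicle-treated control group.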

The mark [1] stands for this setting: endpoint: median survival time, dose: 12.5 mg/kg/injection, schedule: Q01DX009 (ip), vehicle: Klucel (hydroxypropylcellulose) (HPC), higher = longer survival.

Turning to `COc1cc2c(cc1NC(=O)N(CCCl)N=O)-c1ccccc1C2`, the T/C was 93 % of control (endpoint: median survival time, dose: 118.0 mg/kg/injection, schedule: Q01DX001 (ip), vehicle: saline with Tween-80, higher = longer survival); 114 % of control (endpoint: median survival time, dose: 177.0 mg/kg/injection, schedule: Q01DX001 (ip), vehicle: saline with Tween-80, higher = longer survival); 106 % of control (endpoint: median survival time, dose: 266.0 mg/kg/injection, schedule: Q01DX001 (ip), vehicle: saline with Tween-80, higher = longer survival); 101 % of control (endpoint: median survival time, dose: 400.0 mg/kg/injection, schedule: Q01DX001 (ip), vehicle: saline with Tween-80, higher = longer survival); 90 % of control (endpoint: median survival time, dose: 600.0 mg/kg/injection, schedule: Q01DX001 (ip), vehicle: saline with Tween-80, higher = longer survival).
For the compound `C[n+]1ccc(Nc2ccc(NC(=O)c3ccc(Nc4cc[n+](C)c5ccc(N)cc45)cc3N)cc2)cc1`, the T/C is 158 % of control (endpoint: mean tumor weight, dose: 6.25 mg/kg/injection, schedule: Q01DX011 (ip), vehicle: saline, higher = larger tumour); 40 % of control (endpoint: mean tumor weight, dose: 12.5 mg/kg/injection, schedule: Q01DX011 (ip), vehicle: saline, higher = larger tumour); 243 % of control (endpoint: median survival time, dose: 3.13 mg/kg/injection, schedule: Q01DX009 (ip), vehicle: Klucel (hydroxypropylcellulose) (HPC), higher = longer survival); 244 % of control under setting [1].
`C=C(C)[C@@H]1CC[C@]2(CO)CC[C@]3(C)[C@H](CC[C@@H]4[C@@]5(C)CC[C@H](O)C(C)(C)[C@@H]5CC[C@]43C)[C@@H]12`: the T/C by setting is: (endpoint: mean tumor weight, dose: 100.0 mg/kg/injection, schedule: Q01DX011 (ip), vehicle: carboxymethylcellulose (CMC), higher = larger tumour) 101 % of control; (endpoint: mean tumor weight, dose: 200.0 mg/kg/injection, schedule: Q01DX011 (ip), vehicle: carboxymethylcellulose (CMC), higher = larger tumour) 68 % of control.
Turning to `CS(=O)(=O)c1ccccc1`, the T/C is 99 % of control (endpoint: mean tumor weight, dose: 58.0 mg/kg/injection, schedule: Q01DX011 (ip), vehicle: other, higher = larger tumour); 103 % of control (endpoint: mean tumor weight, dose: 88.0 mg/kg/injection, schedule: Q01DX011 (ip), vehicle: other, higher = larger tumour); 83 % of control (endpoint: mean tumor weight, dose: 133.0 mg/kg/injection, schedule: Q01DX011 (ip), vehicle: other, higher = larger tumour); 79 % of control (endpoint: mean tumor weight, dose: 200.0 mg/kg/injection, schedule: Q01DX011 (ip), vehicle: other, higher = larger tumour); 77 % of control (endpoint: mean tumor weight, dose: 250.0 mg/kg/injection, schedule: Q01DX011 (ip), vehicle: other, higher = larger tumour); 80 % of control (endpoint: mean tumor weight, dose: 500.0 mg/kg/injection, schedule: Q01DX011 (ip), vehicle: other, higher = larger tumour). For the same compound, the T/C (endpoint: mean tumor weight, dose: 750.0 mg/kg/injection, schedule: Q01DX011 (ip), vehicle: other, higher = larger tumour) is 76 % of control and the T/C (endpoint: mean tumor weight, dose: 1000.0 mg/kg/injection, schedule: Q01DX011 (ip), vehicle: other, higher = larger tumour) was 93 % of control.
Consider `C=C1C(=O)O[C@H]2C1[C@H](OC(=O)/C(C)=C\COC(C)=O)C[C@]1(CO1)[C@@H]1[C@H](O)[C@H]3O[C@@]3(C)[C@@H]12` (some centres not stated), for which the T/C reads like this: (endpoint: median survival time, dose: 3.12 mg/kg/injection, schedule: Q01DX009 (ip), vehicle: other, higher = longer survival) 86 % of control; (endpoint: median survival time, dose: 6.25 mg/kg/injection, schedule: Q01DX009 (ip), vehicle: other, higher = longer survival) 89 % of control; (endpoint: median survival time, dose: 12.5 mg/kg/injection, schedule: Q01DX009 (ip), vehicle: other, higher = longer survival) 97 % of control; (endpoint: median survival time, dose: 25.0 mg/kg/injection, schedule: Q01DX009 (ip), vehicle: other, higher = longer survival) 99 % of control.
For the compound `CN1C(=O)C=CC1=O`, the T/C is, setting by setting: (endpoint: median survival time, dose: 0.5 mg/kg/injection, schedule: Q02DX009 (ip), vehicle: saline, higher = longer survival) 113 % of control; (endpoint: median survival time, dose: 1.0 mg/kg/injection, schedule: Q02DX009 (ip), vehicle: saline, higher = longer survival) 103 % of control; (endpoint: median survival time, dose: 2.0 mg/kg/injection, schedule: Q02DX009 (ip), vehicle: saline, higher = longer survival) 100 % of control; (endpoint: median survival time, dose: 4.0 mg/kg/injection, schedule: Q02DX009 (ip), vehicle: saline, higher = longer survival) 94 % of control.
Take `O=C1c2c(O)ccc(O)c2C(=O)c2c(NCCNCCO)ccc(NCCNCCO)c21`: the T/C by setting is: (endpoint: median survival time, dose: 0.25 mg/kg/injection, schedule: Q01DX009 (ip), vehicle: acid diluted with saline, higher = longer survival) 88 % of control; (endpoint: median survival time, dose: 0.5 mg/kg/injection, schedule: Q01DX009 (ip), vehicle: acid diluted with saline, higher = longer survival) 95 % of control; (endpoint: median survival time, dose: 0.5 mg/kg/injection, schedule: Q01DX009 (ip), vehicle: saline with Tween-80, higher = longer survival) 86 % of control and 106 % of control and 114 % of control; (endpoint: median survival time, dose: 1.0 mg/kg/injection, schedule: Q01DX009 (ip), vehicle: acid diluted with saline, higher = longer survival) 102 % of control; (endpoint: median survival time, dose: 1.0 mg/kg/injection, schedule: Q01DX009 (ip), vehicle: saline with Tween-80, higher = longer survival) 104 % of control and 105 % of control and 106 % of control; (endpoint: median survival time, dose: 1.0 mg/kg/injection, schedule: Q## X004 (ip), vehicle: acid diluted with saline, higher = longer survival) 89 % of control. Further, the T/C runs as follows: (endpoint: median survival time, dose: 2.0 mg/kg/injection, schedule: Q01DX009 (ip), vehicle: saline with Tween-80, higher = longer survival) 95 % of control; (endpoint: median survival time, dose: 2.0 mg/kg/injection, schedule: Q## X004 (ip), vehicle: acid diluted with saline, higher = longer survival) 89 % of control; (endpoint: median survival time, dose: 4.0 mg/kg/injection, schedule: Q## X004 (ip), vehicle: acid diluted with saline, higher = longer survival) 101 % of control.
On to `Cc1cc(C)nc(NS(=O)(=O)c2ccc(N=Nc3nc4[nH]c(N)nc(=S)c4[nH]3)cc2)n1`, for which the T/C by setting is: (endpoint: median survival time, dose: 0.78 mg/kg/injection, schedule: Q01DX009 (ip), vehicle: Klucel (hydroxypropylcellulose) (HPC), higher = longer survival) 96 % of control; (endpoint: median survival time, dose: 1.56 mg/kg/injection, schedule: Q01DX009 (ip), vehicle: Klucel (hydroxypropylcellulose) (HPC), higher = longer survival) 108 % of control.
As for `O=c1ccn(C2OC(CO)C(O)C2O)c(=O)[nH]1` (configuration not stated), the T/C runs as follows: (endpoint: median survival time, dose: 0.2 mg/kg/injection, schedule: Q01DX011 (adlb), vehicle: water, higher = longer survival) 97 % of control and 119 % of control; (endpoint: median survival time, dose: 0.6 mg/kg/injection, schedule: Q01DX011 (adlb), vehicle: water, higher = longer survival) 103 % of control; (endpoint: median survival time, dose: 1.0 mg/kg/injection, schedule: Q01DX011 (adlb), vehicle: water, higher = longer survival) 86 % of control; (endpoint: median survival time, dose: 1.5 mg/kg/injection, schedule: Q01DX011 (adlb), vehicle: water, higher = longer survival) 106 % of control; (endpoint: median survival time, dose: 2.0 mg/kg/injection, schedule: Q01DX011 (adlb), vehicle: water, higher = longer survival) 76 % of control and 100 % of control.
In the case of `NC(=O)n1cccn1`, the T/C was 76 % of control (endpoint: mean tumor weight, dose: 25.0 mg/kg/injection, schedule: Q01DX011 (ip), vehicle: saline, higher = larger tumour); 88 % of control (endpoint: mean tumor weight, dose: 25.0 mg/kg/injection, schedule: Q01DX011 (ip), vehicle: water, higher = larger tumour); 61 % of control (endpoint: mean tumor weight, dose: 50.0 mg/kg/injection, schedule: Q01DX011 (ip), vehicle: saline, higher = larger tumour); 61 % of control (endpoint: mean tumor weight, dose: 50.0 mg/kg/injection, schedule: Q01DX011 (ip), vehicle: water, higher = larger tumour); 49 % of control (endpoint: mean tumor weight, dose: 100.0 mg/kg/injection, schedule: Q01DX011 (ip), vehicle: saline, higher = larger tumour); 39 % of control (endpoint: mean tumor weight, dose: 100.0 mg/kg/injection, schedule: Q01DX011 (ip), vehicle: water, higher = larger tumour).
In the case of `Cn1c(O)c(N=NC(N)=S)c2ccccc21`, the T/C was 70 % of control (endpoint: mean tumor weight, dose: 15.0 mg/kg/injection, schedule: Q01DX011 (ip), vehicle: carboxymethylcellulose (CMC), higher = larger tumour); 77 % of control and 82 % of control (endpoint: mean tumor weight, dose: 120.0 mg/kg/injection, schedule: Q01DX011 (ip), vehicle: carboxymethylcellulose (CMC), higher = larger tumour); 57 % of control (endpoint: mean tumor weight, dose: 360.0 mg/kg/injection, schedule: Q01DX011 (ip), vehicle: carboxymethylcellulose (CMC), higher = larger tumour); 52 % of control (endpoint: mean tumor weight, dose: 500.0 mg/kg/injection, schedule: Q01DX011 (ip), vehicle: carboxymethylcellulose (CMC), higher = larger tumour).
Take `C[C@@H]1CC[C@@]2(NC1)O[C@H]1C[C@H]3[C@@H]4CC=C5C[C@@H](O)CC[C@]5(C)[C@H]4CC[C@]3(C)[C@H]1[C@@H]2C`: the T/C is 73 % of control (endpoint: mean tumor weight, dose: 12.0 mg/kg/injection, schedule: Q01DX011 (sc), vehicle: steriod suspending solution, higher = larger tumour); 56 % of control and 59 % of control and 70 % of control (endpoint: mean tumor weight, dose: 16.6 mg/kg/injection, schedule: Q01DX011 (ip), vehicle: carboxymethylcellulose (CMC), higher = larger tumour); 75 % of control (endpoint: mean tumor weight, dose: 18.0 mg/kg/injection, schedule: Q01DX011 (sc), vehicle: steriod suspending solution, higher = larger tumour); 94 % of control (endpoint: mean tumor weight, dose: 40.0 mg/kg/injection, schedule: Q01DX011 (sc), vehicle: steriod suspending solution, higher = larger tumour); 97 % of control (endpoint: mean tumor weight, dose: 50.0 mg/kg/injection, schedule: Q01DX011 (ip), vehicle: carboxymethylcellulose (CMC), higher = larger tumour); 92 % of control (endpoint: mean tumor weight, dose: 54.0 mg/kg/injection, schedule: Q01DX011 (sc), vehicle: steriod suspending solution, higher = larger tumour). Besides, the T/C is, setting by setting: (endpoint: mean tumor weight, dose: 80.0 mg/kg/injection, schedule: Q01DX011 (sc), vehicle: steriod suspending solution, higher = larger tumour) 119 % of control; (endpoint: mean tumor weight, dose: 100.0 mg/kg/injection, schedule: Q01DX011 (sc), vehicle: steriod suspending solution, higher = larger tumour) 83 % of control; (endpoint: mean tumor weight, dose: 200.0 mg/kg/injection, schedule: Q01DX011 (sc), vehicle: steriod suspending solution, higher = larger tumour) 58 % of control; (endpoint: mean tumor weight, dose: 400.0 mg/kg/injection, schedule: Q01DX011 (sc), vehicle: steriod suspending solution, higher = larger tumour) 104 % of control.
In the case of `O=[N+]([O-])c1ccc(Cl)c2c([N+](=O)[O-])cccc12`, the T/C (endpoint: median survival time, dose: 6.25 mg/kg/injection, schedule: Q01DX009 (ip), vehicle: Klucel (hydroxypropylcellulose) (HPC), higher = longer survival) is 118 % of control; the T/C under setting [1] is 114 % of control; the T/C (endpoint: median survival time, dose: 50.0 mg/kg/injection, schedule: Q01DX009 (ip), vehicle: Klucel (hydroxypropylcellulose) (HPC), higher = longer survival) is 103 % of control; the T/C (endpoint: median survival time, dose: 100.0 mg/kg/injection, schedule: Q01DX009 (ip), vehicle: Klucel (hydroxypropylcellulose) (HPC), higher = longer survival) was 111 % of control.
